Laboratory results: paper PMC6290463 (The FEBS journal, 2012)
Non-standard residues stand in square brackets, D forms with d. Residues, ends and D or L forms follow the SMILES beside them. *: point of attachment. Sta = CC(C)C[C@H](N)[C@@H](O)CC(=O)O; Isovaleryl = CC(C)CC(=O)*

Key:
XMRV PR [1] = target: T1, XMRV PR (Xenotropic MuLV-related virus VP62, UniProt A1Z651); assay: HPLC-based cleavage assay with peptide RSLLY-PALTP; type: biochemical; conditions: read-out: XMRV PR Ki; cited from earlier work
T1 sequence (A1Z651 533-657): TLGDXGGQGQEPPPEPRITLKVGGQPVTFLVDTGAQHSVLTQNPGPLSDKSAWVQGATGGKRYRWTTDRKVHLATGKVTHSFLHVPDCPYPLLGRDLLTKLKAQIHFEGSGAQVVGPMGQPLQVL

XMRV PR [2] = target: T1, XMRV PR; conditions: previous study; cited from earlier work
XMRV PR [3] = target: T1, XMRV PR; conditions: PDB 3SM1; cited from earlier work
HIV-1 PR = HIV-1 PR (Human immunodeficiency virus type 1 group M subtype B, UniProt P04585, C555A/C583A/L521I/L551I/Q495K); assay: Urea dissociation of HIV-1 PR; type: physicochemical; conditions: half-maximal velocity; urea 0–4.0 M, 5.5 nM HIV-1 PR, 0.3 mM substrate, HPLC

## CC(C)CC(=O)N[C@H](C(=O)N[C@H](C(=O)N[C@@H](CC(C)C)[C@@H](O)CC(=O)N[C@@H](C)C(=O)N[C@@H](CC(C)C)[C@@H](O)CC(=O)O)C(C)C)C(C)C [Pepstatin A, pepstatin A (isovaleryl-Val-Val-Sta-Ala-Sta)] (Isovaleryl-VV[Sta]A[Sta]-OH)
XMRV PR [1]
  Ki: 1440 nM

## CC(C)CC(=O)N[C@H](C(=O)N[C@H](C(=O)N[C@@H](CC(C)C)[C@@H](O)CC(=O)N[C@@H](C)C(=O)N[C@@H](CC(C)C)[C@@H](O)CC(=O)O)C(C)C)C(C)C [Pepstatin A, pepstatin A] (Isovaleryl-VV[Sta]A[Sta]-OH)
XMRV PR [2]
  Inhibition of XMRV PR (in words): only a very weak inhibitor of XMRV PR
XMRV PR [3]
  binding mode to XMRV PR (crystal structure): two inhibitor molecules binding to the enzyme, leaving the catalytic water in place

## HIV-1 PR: Purified HIV-1 PR, containing stabilizing mutations (Q7K, L33I, L63I, C67A and C95A)
HIV-1 PR
  Urea dissociation (UC50): 1.47 M
